Consider one compound from publication PMC7215599, “Synthesis, Antitumor Evaluation, Molecular Modeling and Quantitative Structure–Activity Relationship (QSAR) of Novel 2-[(4-Amino-6-N-substituted-1,3,5-triazin-2-yl)methylthio]-4-chloro-5-methyl-N-(1H-benzo[d]imidazol-2(3H)-ylidene)Benzenesulfonamides” (International Journal of Molecular Sciences, 2020).

SMILES strings stand for the structures.

Assay [1] concerns HeLa (cervical cancer) cell line. In words: MTT cell viability assay, HeLa. Conditions: 72 h, MTT, 1-100 µM, mean ± SD. Format: cell-based, human. A general note: Tetrazolium dyes change colour on reduction, which living cells bring about.
The subject of assay [2] is HCT-116 (colon cancer) cell line. In words: MTT cell viability assay, HCT-116. Format: cell-based, human. Conditions: for IC50: MTT, 72 h, 1-100 µM, mean ± SD.
Assay [3] relates to MCF-7 (breast cancer) cell line. In words: MTT cell viability assay, MCF-7. It is filed as cell-based, human. Conditions: for IC50: MTT, 72 h, 1-100 µM, mean ± SD.
Assay [4] has as its system HCT-116, MCF-7 and HeLa cell lines. Kind of assay: MTT cell viability assay, all tested cancer cell lines taken together. Format: cell-based. Conditions: Homo sapiens; range over HCT-116, MCF-7 and HeLa; read-out: IC50 toward all of the tested cell lines (range over the lines). The method, then: Compounds 6–49 were evaluated in vitro for their effects on the viability of the three human cancer cell lines: HCT-116 (colon cancer), MCF-7 (breast cancer) and HeLa (cervical cancer) as well as the non-cancerous keratinocyte cell line (HaCaT). The concentration required for 50% inhibition of cell viability IC50 was calculated and compared with the reference drug cisplatin, the results are shown in Table 1.
Cell lines: colon cancer (HCT-116), breast cancer (MCF-7), cervical cancer (HeLa), the human keratinocyte cell line (HaCaT); NT—not tested; IC50 was measured at concentrations 1, 10, 25, 50, and 100 µM. IC50 values are expressed as the mean ± SD of at last three independent experiments.
All chemicals, if not stated otherwise, were obtained from Sigma–Aldrich (St. Louis, MO, USA). The HCT-116 cell lines was purchased from ATCC (ATCC-No: CCL-247), while the MCF-7, HeLa and HaCaT cell lines were purchased from Cell Lines Services (Eppelheim, Germany). Cells were cultured in Dulbecco’s modified Eagle’s medium (DMEM) supplemented with 10% fetal bovine serum, 2 mM glutamine, 100 units/mL penicillin, and 100 µg/mL streptomycin. Cultures were maintained in a humidified atmosphere with 5% carbon dioxide at 37 °C in an incubator (Heraceus, HeraCell).
Cell viability was examined using the MTT (3-(4,5-dimethylthiazol-2-yl)-2,5-diphenyltetrazolium bromide) assay. Cells were seeded in 96-well plates at a density of 5 × 10^3 cells/well and treated for 72 h with the tested compounds in the concentration range of 1–100 µM (1, 10, 25, 50 and 100 µM). Then, MTT (0.5 mg/mL) was added to the medium and cells were further incubated for 2 h at 37 °C. In the next stage, cells were lysed with DMSO and the absorbance of the formazan solution was measured at 550 nm with a plate reader (1420 multilabel counter, Victor, Jügesheim, Germany). The experiment was performed in triplicate. Values are expressed as the mean ± SD of at least three independent experiments. Cisplatin was used as a positive control.

Assay [5] deals with HaCaT (non-cancerous keratinocyte cell line). In words: MTT cell viability assay, HaCaT. Format: cell-based. Conditions: Homo sapiens, 72 h, 1-100 µM, mean ± SD, non-cancerous cells.

Usually IC50 stands for the point on the concentration scale where inhibition reaches its midpoint.

For the compound `Cc1cc(S(=O)(=O)N=c2[nH]c3ccc(Cl)cc3[nH]2)c(SCc2nc(N)nc(N3CCN(c4ccc(F)cc4)CC3)n2)cc1Cl` [Compound 46, 2-[{4-Amino-6-[4-(4-fluorophenyl)piperazin-1-yl]-1,3,5-triazin-2-yl}metylthio]-4-chloro-N-(5-chloro-1H-benzo[d]imidazol-2(3H)-ylidene)-5-methylbenzenesulfonamide], the 50% inhibitory concentration (IC50) in assay [1] (Homo sapiens, HeLa) was 11 to 18 µM; in assay [1] it was 18 ± 1 µM; in assay [2] (Homo sapiens, HCT-116, 72 h), 7 to 11 µM; in assay [2] it was 7 ± 0.1 µM; in assay [3] (Homo sapiens, MCF7, 72 h), 17 to 19 µM; in assay [3] it was 15 ± 1 µM. In addition, the figures for the IC50 in assay [4] and in assay [5] were 7 to 19 µM and 28 ± 1 µM, respectively. Besides, in assay [2] (ratio of IC50 values), the “selectivity ratio HaCaT/HCT-116” value was determined as 4. The “selectivity ratio HaCaT/MCF-7” value in assay [3] (ratio of IC50 values) worked out at 2.
